In ChEMBL document CHEMBL1201862, “PubChem BioAssay data set” (2004):
Where “and” joins values, the source holds several entries; their conditions need not be identical. Equal entries are not always repeated.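 Results reflect a 48-hour exposure of cells in 96-well plates to compound at five concentrations. GI50 = concentration required for 50% inhibition of growth.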 Calls of active or inactive are those of the source. No stated cut-off is given here; in the data, active = GI50 up to about 1.1 µM and inactive = higher.

What was measured:
Test in all cases: DTP human tumour cell line panel, 48 h
786-0 = test system: 786-0
A498 = test system: A498
CAKI-1 = test system: CAKI-1
COLO 205 = test system: COLO 205
DU-145 = test system: DU-145
HCC 2998 = test system: HCC 2998
HCT-116 = test system: HCT-116
HCT-15 = test system: HCT-15
IGROV-1 = test system: IGROV-1
K562 = test system: K562
LOX IMVI = test system: LOX IMVI
MCF7 = test system: MCF7
MDA-MB-231 = test system: MDA-MB-231
MDA-MB-435 = test system: MDA-MB-435
MDA-N = test system: MDA-N
MOLT-4 = test system: MOLT-4
NCI-H460 = test system: NCI-H460
NCI-H522 = test system: NCI-H522
OVCAR-3 = test system: OVCAR-3
OVCAR-5 = test system: OVCAR-5
PC-3 = test system: PC-3
RPMI-8226 = test system: RPMI-8226
SF-539 = test system: SF-539
SK-MEL-28 = test system: SK-MEL-28
SK-MEL-2 = test system: SK-MEL-2
SK-MEL-5 = test system: SK-MEL-5
SN12C = test system: SN12C
SNB-19 = test system: SNB-19
SR = test system: SR
SW-620 = test system: SW-620
T47D = test system: T47D
UACC-257 = test system: UACC-257
UO-31 = test system: UO-31
A549 = test system: A549
ACHN = test system: ACHN
CCRF-CEM = test system: CCRF-CEM
EKVX = test system: EKVX
HOP-92 = test system: HOP-92
HT-29 = test system: HT-29
Hs-578T = test system: Hs-578T
KM12 = test system: KM12
M14 = test system: M14
NCI-H23 = test system: NCI-H23
NCI/ADR-RES = test system: NCI/ADR-RES
OVCAR-4 = test system: OVCAR-4
OVCAR-8 = test system: OVCAR-8
RXF 393 = test system: RXF 393
SF-268 = test system: SF-268
SK-OV-3 = test system: SK-OV-3
SNB-75 = test system: SNB-75
TK-10 = test system: TK-10
U-251 = test system: U-251
UACC-62 = test system: UACC-62
HL-60 = test system: HL-60
HOP-62 = test system: HOP-62
Malme-3M = test system: Malme-3M
SF-295 = test system: SF-295

For `O=[N+]([O-])c1ccc(/N=N/c2c(O)ccc3ccccc23)cc1`, the GI50 (786-0) was > 100 µM (inactive), the GI50 (A498) was > 100 µM (inactive) and the GI50 (CAKI-1) was > 100 µM (inactive). For the same molecule, the GI50 (COLO 205) was > 100 µM (inactive), the GI50 (DU-145) was > 100 µM (inactive) and the GI50 (HCC 2998) was > 100 µM (inactive). For the same molecule, the GI50 (HCT-116) was > 100 µM (inactive), the GI50 (HCT-15) was greater than 100 µM and the GI50 (IGROV-1) was 19.4 µM (inactive) and > 32 µM (inactive). For the same molecule, the GI50 (K562) was > 100 µM (inactive), the GI50 (LOX IMVI) was > 100 µM (inactive) and the GI50 (MCF7) was > 100 µM (inactive). For the same molecule, the GI50 (MDA-MB-231) was > 100 µM (inactive), the GI50 (MDA-MB-435) was > 100 µM (inactive) and the GI50 (MDA-N) was > 100 µM (inactive). For the same molecule, the GI50 (MOLT-4) was 95.1 µM (inactive), the GI50 (NCI-H460) was > 100 µM (inactive) and the GI50 (NCI-H522) was 0.293 µM (active). The GI50 (OVCAR-3) was 50.5 µM (inactive), the GI50 (OVCAR-5) was > 100 µM (inactive) and 65.2 µM (inactive) and the GI50 (PC-3) was 73.5 µM (inactive). The GI50 (RPMI-8226) was > 100 µM (inactive), the GI50 (SF-539) was > 100 µM (inactive) and the GI50 (SK-MEL-28) was > 100 µM (inactive). For the same molecule, the GI50 (SK-MEL-2) was 84.9 µM (inactive), the GI50 (SK-MEL-5) was > 100 µM (inactive) and the GI50 (SN12C) was > 100 µM (inactive). For the same molecule, the GI50 (SNB-19) was > 100 µM (inactive), the GI50 (SR) was > 22.2 µM (inactive) and 21.2 µM (inactive) and the GI50 (SW-620) was > 100 µM (inactive). The GI50 (T47D) was > 100 µM (inactive), the GI50 (UACC-257) was > 100 µM (inactive) and the GI50 (UO-31) was > 100 µM (inactive) and 98.4 µM (inactive).

In the case of `CC(NC(=O)C(N)CC(=O)O)C(=O)OC12CC3CC(CC(C3)C1)C2` (stereo unspecified), the GI50 (786-0) is reported as > 100 µM (inactive), the GI50 (A549) is reported as > 100 µM (inactive) and the GI50 (ACHN) is reported as > 100 µM (inactive). The GI50 (CAKI-1) was > 100 µM (inactive), the GI50 (CCRF-CEM) was > 100 µM (inactive) and the GI50 (COLO 205) was > 100 µM (inactive). The GI50 (DU-145) was 13.4 µM (inactive), the GI50 (EKVX) was > 100 µM (inactive) and the GI50 (HCC 2998) was > 100 µM (inactive). The GI50 (HCT-116) was > 100 µM (inactive), the GI50 (HCT-15) was greater than 100 µM and the GI50 (HOP-92) was > 100 µM (inactive). The GI50 (HT-29) was > 100 µM (inactive), the GI50 (Hs-578T) was > 100 µM (inactive) and the GI50 (IGROV-1) was > 100 µM (inactive). The GI50 (K562) was > 100 µM (inactive), the GI50 (KM12) was > 100 µM (inactive) and the GI50 (LOX IMVI) was > 100 µM (inactive). For the same molecule, the GI50 (M14) was > 100 µM (inactive), the GI50 (MCF7) was > 100 µM (inactive) and the GI50 (MDA-MB-231) was > 100 µM (inactive). The GI50 (MDA-MB-435) was > 100 µM (inactive), the GI50 (MOLT-4) was > 100 µM (inactive) and the GI50 (NCI-H23) was > 100 µM (inactive). The GI50 (NCI-H460) was > 100 µM (inactive), the GI50 (NCI-H522) was > 100 µM (inactive) and the GI50 (NCI/ADR-RES) was > 100 µM (inactive). For the same molecule, the GI50 (OVCAR-4) was > 100 µM (inactive), the GI50 (OVCAR-5) was > 100 µM (inactive) and the GI50 (OVCAR-8) was > 100 µM (inactive). For the same molecule, the GI50 (PC-3) was > 100 µM (inactive), the GI50 (RPMI-8226) was > 100 µM (inactive) and the GI50 (RXF 393) was > 100 µM (inactive). The GI50 (SF-268) was > 100 µM (inactive), the GI50 (SK-MEL-28) was > 100 µM (inactive) and the GI50 (SK-MEL-2) was > 100 µM (inactive). For the same molecule, the GI50 (SK-MEL-5) was > 100 µM (inactive), the GI50 (SK-OV-3) was > 100 µM (inactive) and the GI50 (SN12C) was > 100 µM (inactive). The GI50 (SNB-19) was > 100 µM (inactive), the GI50 (SNB-75) was > 100 µM (inactive) and the GI50 (SR) was > 100 µM (inactive). The GI50 (SW-620) was > 100 µM (inactive), the GI50 (TK-10) was > 100 µM (inactive) and the GI50 (U-251) was > 100 µM (inactive). For the same molecule, the GI50 (UACC-257) was > 100 µM (inactive), the GI50 (UACC-62) was > 100 µM (inactive) and the GI50 (UO-31) was > 100 µM (inactive).

In the case of `CCCCCC[C@H]1CC(=O)C2CCCC[C@@]23CC[C@H](CCl)N13.CCCCCC[C@H]1CC(=O)C2CCCC[C@@]23C[C@H](Cl)CN13` (stereo partly specified), the GI50 (786-0) is reported as > 100 µM (inactive), the GI50 (A498) is reported as > 100 µM (inactive) and the GI50 (A549) is reported as 37 µM (inactive). The GI50 (ACHN) was 53.5 µM (inactive), the GI50 (CAKI-1) was 58.9 µM (inactive) and the GI50 (CCRF-CEM) was 33.2 µM (inactive). The GI50 (COLO 205) was 10 µM (inactive), the GI50 (DU-145) was 61 µM (inactive) and the GI50 (EKVX) was 49.9 µM (inactive). For the same molecule, the GI50 (HCC 2998) was > 100 µM (inactive), the GI50 (HCT-116) was 51.9 µM (inactive) and the GI50 (HCT-15) was 60.3 µM. For the same molecule, the GI50 (HL-60) was 21.8 µM (inactive), the GI50 (HOP-62) was 91.6 µM (inactive) and the GI50 (HOP-92) was 24.2 µM (inactive). For the same molecule, the GI50 (HT-29) was 61.9 µM (inactive), the GI50 (Hs-578T) was 8.53 µM (inactive) and the GI50 (IGROV-1) was > 100 µM (inactive). The GI50 (K562) was 28.6 µM (inactive), the GI50 (KM12) was 49.8 µM (inactive) and the GI50 (M14) was 29.2 µM (inactive). The GI50 (MCF7) was 40.1 µM (inactive), the GI50 (MDA-MB-231) was 84.5 µM (inactive) and the GI50 (MDA-MB-435) was 57.8 µM (inactive). For the same molecule, the GI50 (MOLT-4) was 10 µM (inactive), the GI50 (Malme-3M) was 55.3 µM (inactive) and the GI50 (NCI-H23) was 47.5 µM (inactive). For the same molecule, the GI50 (NCI-H460) was 98.2 µM (inactive), the GI50 (NCI-H522) was 17.9 µM (inactive) and the GI50 (OVCAR-3) was 25.1 µM (inactive). For the same molecule, the GI50 (OVCAR-4) was 40.2 µM (inactive), the GI50 (OVCAR-5) was > 100 µM (inactive) and the GI50 (OVCAR-8) was 25.4 µM (inactive). For the same molecule, the GI50 (PC-3) was 23.3 µM (inactive), the GI50 (RPMI-8226) was 20.7 µM (inactive) and the GI50 (SF-268) was 65.2 µM (inactive). For the same molecule, the GI50 (SF-295) was 51.2 µM (inactive), the GI50 (SF-539) was 69.5 µM (inactive) and the GI50 (SK-MEL-28) was 38.1 µM (inactive). The GI50 (SK-MEL-2) was > 100 µM (inactive), the GI50 (SK-MEL-5) was 17.2 µM (inactive) and the GI50 (SK-OV-3) was > 100 µM (inactive). For the same molecule, the GI50 (SN12C) was 82 µM (inactive), the GI50 (SNB-19) was 37.9 µM (inactive) and the GI50 (SNB-75) was 27.8 µM (inactive). For the same molecule, the GI50 (TK-10) was 43.9 µM (inactive), the GI50 (U-251) was 29.6 µM (inactive) and the GI50 (UACC-257) was 43 µM (inactive). For the same molecule, the GI50 (UACC-62) was 48.1 µM (inactive) and the GI50 (UO-31) was 24.3 µM (inactive).
